# According to patent publication US20240409548A1, “MODULATORS OF THE BETA-3 ADRENERGIC RECEPTOR USEFUL FOR THE TREATMENT OR PREVENTION OF DISORDERS RELATED THERETO” (Arena Pharmaceuticals, Inc., priority 2021, published 2024):
# Like-named read-outs stand apart in the source and are kept apart here.
# Assays:
# [1] = slurry, ambient temperature
# Protocol: (§1) Compound C was slurried in various solvents (Table 1) for 2 weeks at ambient temperature (21° C.±1° C.). […] Solubility was determined after 1 day of equilibration and slurries were allowed to stir for 2 weeks. The temperature was monitored and determined to be 21° C.±1° C. for the duration of the study. At the end of 2 weeks, the slurries were removed from stirring and solids were isolated by centrifuge filtration using 0.45-μm nylon filters, allowed to air-dry overnight, and then analyzed by PXRD. Selected samples were also analyzed by TGA and DSC.
# X-ray diffraction analysis was performed using a PANalytical. X′Pert PRO MPD powder X-ray diffractometer (EQ0233). Samples were prepared by placing several milligrams of compound onto a sample holder and smoothing flat.
# [2] = for Solubility (mM) / Solubility (mg/mL): 21° C.±1° C.
# Protocol: as §1
# Solubility was determined by gravimetric analysis after ˜24 hours of equilibration at ambient temperature (21° C.±1° C.). Samples were separated by centrifuge filtration using an Eppendorf 5417C model centrifuge. Suspension samples were placed into centrifuge filter tubes with 0.45-μm nylon membrane filter and spun at 10000 rpm for 1 minute. Filtrate aliquots of 10 to 20 μL were placed into separate thermogravimetric analyzer pans, previously tared on a TA Instruments Q5000. The filtrates were dried to achieve dry residual solid weights. Solubility was calculated by dividing the dry residual weight by the aliquot volume.
# [3] = Aqueous solubility at various pH values (pH-solubility fit); settings: for aqueous solubility: A=active free base
# Protocol: Solubility of Compound A in aqueous media was measured at various pH values. The conjugate acid ionization constant and intrinsic solubility of the free base were derived by fitting the measured pH-solubility data to the slope-intercept form of the Henderson-Hasselbalch equation for monobasic molecules.
# [4] = Dynamic moisture sorption (DMS); assay type: physicochemical
# Protocol: Dynamic Moisture Sorption analysis was performed using a TA Instruments Q5000 SA (EQ2418). The sample was prepared for DMS analysis by placing ˜5 mg of compound into a tared sample holder.
# [5] = dimethyl sulfoxide (remained a solution), ~24 hours
# [6] = methyl t-butyl ether, ~24 hours equilibration
# [7] = water/acetone (1:20), ~24 hours
# [8] = water/acetonitrile (1:20), ~24 hours
# [9] = water/isopropyl alcohol (1:20), ~24 hours
smiles,measurement,setting,value
"CCn1cc(S(=O)(=O)N2CCC3(CC2)C[C@@H](NC[C@H](O)COc2cccc(S(C)(=O)=O)c2)CO3)c(=O)c2ccccc21.CCn1cc(S(=O)(=O)N2CCC3(CC2)C[C@@H](NC[C@H](O)COc2cccc(S(C)(=O)=O)c2)CO3)c(=O)c2ccccc21.CS(=O)(=O)O.CS(=O)(=O)O.O [Compound B, 1-ethyl-3-((R)-3-((S)-2-hydroxy-3-(3-(methylsulfonyl)phenoxy)propylamino)-1-oxa-8-azaspiro[4.5]decan-8-ylsulfonyl)quinolin-4(1H)-one mesylate hemihydrate Form 1]",crystal form stability / conversion,[1]; listed as Form 1,converts to Form 2 in water
"CCn1cc(S(=O)(=O)N2CCC3(CC2)C[C@@H](NC[C@H](O)COc2cccc(S(C)(=O)=O)c2)CO3)c(=O)c2ccccc21.CCn1cc(S(=O)(=O)N2CCC3(CC2)C[C@@H](NC[C@H](O)COc2cccc(S(C)(=O)=O)c2)CO3)c(=O)c2ccccc21.CS(=O)(=O)O.CS(=O)(=O)O.O [Compound A, 1-ethyl-3-((R)-3-((S)-2-hydroxy-3-(3-(methylsulfonyl)phenoxy)propylamino)-1-oxa-8-azaspiro[4.5]decan-8-ylsulfonyl)quinolin-4(1H)-one mesylate hemihydrate Form 2]",Solubility (mM),"[2]; Acetone, ~24 hours",0.61 mM
same,Solubility (mg/mL),"[2]; Acetone, ~24 hours",0.44 mg/mL
same,Solubility (mM),"[2]; Acetonitrile, ~24 hours",2.31 mM
same,Solubility (mg/mL),"[2]; Acetonitrile, ~24 hours",1.66 mg/mL
same,Solubility (mM),"[2]; Tetrahydrofuran, ~24 hours",0.39 mM
same,Solubility (mg/mL),"[2]; Tetrahydrofuran, ~24 hours",0.28 mg/mL
same,Solubility (mM),"[2]; Water, ~24 hours",52.6 mM
same,Solubility (mg/mL),"[2]; Water, ~24 hours",30.5 mg/mL
same,Solubility (mM),[2]; [5],>610 mM
same,Solubility (mg/mL),[2]; [5],>437 mg/mL
same,Solubility (mM),"[2]; ethyl acetate, ~24 hours",0.88 mM
same,Solubility (mg/mL),"[2]; ethyl acetate, ~24 hours",0.63 mg/mL
same,Solubility (mM),"[2]; ethyl alcohol, ~24 hours",1.03 mM
same,Solubility (mg/mL),"[2]; ethyl alcohol, ~24 hours",0.73 mg/mL
same,solubility,"[2]; in methanol, dimethyl sulfoxide, and aqueous systems (high solubility)",> 20000 µM
same,solubility,[2]; in most organic solvents (low solubility),≤ 1000 µM
same,Solubility (mM),"[2]; isopropyl alcohol, ~24 hours",1.01 mM
same,Solubility (mg/mL),"[2]; isopropyl alcohol, ~24 hours",0.72 mg/mL
same,Solubility (mM),"[2]; methyl alcohol, ~24 hours",21.6 mM
same,Solubility (mg/mL),"[2]; methyl alcohol, ~24 hours",15.5 mg/mL
same,Solubility (mM),"[2]; methyl ethyl ketone, ~24 hours",0.99 mM
same,Solubility (mg/mL),"[2]; methyl ethyl ketone, ~24 hours",0.71 mg/mL
same,Solubility (mM),[2]; [6],0.76 mM
same,Solubility (mg/mL),[2]; [6],0.54 mg/mL
same,Solubility (mM),[2]; [7],47.3 mM
same,Solubility (mg/mL),[2]; [7],33.9 mg/mL
same,Solubility (mM),[2]; [8],97.0 mM
same,Solubility (mg/mL),[2]; [8],69.5 mg/mL
same,Solubility (mM),[2]; [9],29.4 mM
same,Solubility (mg/mL),[2]; [9],21.2 mg/mL
same,crystal form stability / conversion,[1]; listed as Form 2,does not convert to any other form at ambient temperature
same,aqueous solubility,[3],about 28 mgA/mL
same,aqueous solubility,[3]; listed as mesylate salt,28 mgA/mL
same,pHmax,[3]; associated with the mesylate salt,5.7
same,hygroscopicity,"[4]; DMS scan 0 to 90% RH, 25° C.",non-hygroscopic
same,weight change between 30% RH and 90% RH (DMS),"[4]; at 2500, after essentially fully rehydrating",~0.1%
same,total weight change of water during the drying step (DMS),[4]; condition 4000 and ~1% RH until steady weight in ~1 hour,about 0.35%
"CCn1cc(S(=O)(=O)N2CCC3(CC2)C[C@@H](NC[C@H](O)COc2cccc(S(C)(=O)=O)c2)CO3)c(=O)c2ccccc21 [Compound D, 1-ethyl-3-((R)-3-((S)-2-hydroxy-3-(3-(methylsulfonyl)phenoxy)propylamino)-1-oxa-8-azaspiro[4.5]decan-8-ylsulfonyl)quinolin-4(1H)-one]",pKa,[3],7.44
same,solubility,[3]; aqueous buffer,530 µg/mL
